Reference: the CheMixHub viscosity set
± gives the uncertainty stated by the source.

Test: xn = mol fraction of the nth substance listed

COC(=O)c1ccccc1 + CCCO
viscosity [mPa·s], 100 kPa
Settings | x1 = 0.05 | x1 = 0.1 | x1 = 0.2 | x1 = 0.3 | x1 = 0.4 | x1 = 0.5 | x1 = 0.6 | x1 = 0.65 | x1 = 0.8 | x1 = 0.9
293.2 K | 2.016 ± 0.043 | 1.887 ± 0.04 | 1.724 ± 0.037 | 1.65 ± 0.035 | 1.622 ± 0.035 | 1.621 ± 0.035 | 1.649 ± 0.035 | 1.669 ± 0.036 | 1.76 ± 0.038 | 1.872 ± 0.04
298.2 K | 1.794 ± 0.038 | 1.685 ± 0.036 | 1.547 ± 0.033 | 1.487 ± 0.032 | 1.464 ± 0.031 | 1.466 ± 0.031 | 1.492 ± 0.032 | 1.511 ± 0.032 | 1.594 ± 0.034 | 1.693 ± 0.036
303.2 K | 1.601 ± 0.034 | 1.509 ± 0.032 | 1.395 ± 0.03 | 1.344 ± 0.029 | 1.327 ± 0.028 | 1.332 ± 0.028 | 1.357 ± 0.029 | 1.375 ± 0.029 | 1.453 ± 0.031 | 1.54 ± 0.033
308.2 K | 1.434 ± 0.031 | 1.356 ± 0.029 | 1.262 ± 0.027 | 1.22 ± 0.026 | 1.209 ± 0.026 | 1.215 ± 0.026 | 1.239 ± 0.026 | 1.257 ± 0.027 | 1.33 ± 0.028 | 1.41 ± 0.03
313.2 K | 1.288 ± 0.028 | 1.223 ± 0.026 | 1.145 ± 0.024 | 1.112 ± 0.024 | 1.104 ± 0.024 | 1.113 ± 0.024 | 1.138 ± 0.024 | 1.154 ± 0.025 | 1.223 ± 0.026 | 1.297 ± 0.028

CCCC[n+]1ccn(C)c1.O=[N+]([O-])[O-] + CCO
101 kPa
Settings | viscosity [mPa·s]
293.15 K, x1 = 0.8 | 73.11 ± 12
303.15 K, x1 = 0.6 | 22.05 ± 2.2

CCCCOCCO + CCc1ccccc1
viscosity [mPa·s], 101 kPa
Settings | 298.15 K | 308.15 K
x1 = 0.0546 | 0.678 ± 0.012 | 0.568 ± 0.01
x1 = 0.1505 | 0.769 ± 0.013 | 0.643 ± 0.011
x1 = 0.2513 | 0.877 ± 0.015 | 0.732 ± 0.013
x1 = 0.3501 | 1.003 ± 0.017 | 0.835 ± 0.014
x1 = 0.4528 | 1.161 ± 0.019 | 0.961 ± 0.016
x1 = 0.4982 | 1.24 ± 0.02 | 1.025 ± 0.017
x1 = 0.55 | 1.339 ± 0.021 | 1.103 ± 0.018
x1 = 0.6497 | 1.56 ± 0.025 | 1.277 ± 0.021
x1 = 0.7511 | 1.831 ± 0.029 | 1.487 ± 0.024
x1 = 0.8507 | 2.156 ± 0.033 | 1.736 ± 0.028
x1 = 0.9614 | 2.601 ± 0.04 | 2.071 ± 0.033

CC(C)OCCO + CCCN
viscosity [mPa·s], 101.33 kPa
Settings | 298.15 K | 308.15 K | 318.15 K
x1 = 0.0207 | 0.381 ± 0.004 | 0.347 ± 0.004 | 0.305 ± 0.004
x1 = 0.0475 | 0.413 ± 0.004 | 0.372 ± 0.004 | 0.328 ± 0.004
x1 = 0.0745 | 0.451 ± 0.005 | 0.398 ± 0.004 | 0.35 ± 0.004
x1 = 0.1534 | 0.575 ± 0.006 | 0.493 ± 0.005 | 0.425 ± 0.005
x1 = 0.2413 | 0.732 ± 0.008 | 0.615 ± 0.007 | 0.517 ± 0.006
x1 = 0.2917 | 0.841 ± 0.009 | 0.702 ± 0.007 | 0.578 ± 0.006
x1 = 0.3559 | 0.992 ± 0.01 | 0.808 ± 0.009 | 0.662 ± 0.007
x1 = 0.4223 | 1.147 ± 0.012 | 0.935 ± 0.01 | 0.746 ± 0.008
x1 = 0.4366 | 1.183 ± 0.013 | 0.966 ± 0.01 | 0.767 ± 0.008
x1 = 0.5416 | 1.445 ± 0.016 | 1.145 ± 0.013 | 0.905 ± 0.01
x1 = 0.6413 | 1.681 ± 0.019 | 1.319 ± 0.015 | 1.032 ± 0.012
x1 = 0.7365 | 1.875 ± 0.022 | 1.464 ± 0.017 | 1.142 ± 0.013
x1 = 0.8564 | 2.047 ± 0.024 | 1.577 ± 0.019 | 1.252 ± 0.015
x1 = 0.9246 | 2.077 ± 0.025 | 1.617 ± 0.02 | 1.283 ± 0.016
x2 = 0.0101 | 2.099 ± 0.026 | 1.645 ± 0.021 | 1.309 ± 0.017

NCC(=O)NCC(=O)NCC(=O)NCC(=O)O + O
viscosity [mPa·s], 101 kPa
Settings | x1 = 9.96e-05 | x1 = 0.000119 | x1 = 0.0002046 | x1 = 0.0002554 | x1 = 0.0003681 | x1 = 0.0004221 | x1 = 0.0005133
298.15 K | 0.893 ± 0.019 | 0.894 ± 0.019 | 0.8971 ± 0.019 | 0.8987 ± 0.019 | 0.9022 ± 0.02 | 0.9037 ± 0.02 | 0.9045 ± 0.02
308.15 K | 0.7219 ± 0.018 | 0.7227 ± 0.018 | 0.7246 ± 0.018 | 0.7261 ± 0.018 | 0.7289 ± 0.018 | 0.7304 ± 0.018 | 0.7337 ± 0.018
318.15 K | 0.5985 ± 0.016 | 0.5992 ± 0.016 | 0.6011 ± 0.016 | 0.6019 ± 0.016 | 0.6045 ± 0.016 | 0.606 ± 0.016 | 0.6079 ± 0.016

CC(C)OCCO + CCCO
298.15 K, 101.33 kPa
Settings | viscosity [mPa·s]
x1 = 0.0192 | 1.947 ± 0.016
x1 = 0.0257 | 1.944 ± 0.016
x1 = 0.045 | 1.941 ± 0.016
x1 = 0.0645 | 1.938 ± 0.016
x1 = 0.081 | 1.933 ± 0.016
x1 = 0.1072 | 1.93 ± 0.016
x1 = 0.1486 | 1.927 ± 0.016
x1 = 0.1863 | 1.923 ± 0.016
x1 = 0.2438 | 1.919 ± 0.017
x1 = 0.2942 | 1.914 ± 0.017
x1 = 0.3545 | 1.916 ± 0.017
x1 = 0.3782 | 1.921 ± 0.018
x1 = 0.4251 | 1.929 ± 0.018
x1 = 0.4749 | 1.938 ± 0.019
x1 = 0.5261 | 1.949 ± 0.019
x1 = 0.5659 | 1.958 ± 0.02
x1 = 0.6184 | 1.971 ± 0.02
x1 = 0.6608 | 1.983 ± 0.021
x1 = 0.7 | 1.996 ± 0.022
x1 = 0.7606 | 2.015 ± 0.022
x1 = 0.8023 | 2.025 ± 0.023
x1 = 0.8623 | 2.042 ± 0.024
x1 = 0.8845 | 2.052 ± 0.024
x1 = 0.9485 | 2.064 ± 0.025

CCCCOCCO + CCCCO
101 kPa
Settings | viscosity [mPa·s]
298.15 K, x1 = 0.7025 | 2.645 ± 0.12
303.15 K, x1 = 0.4 | 2.255 ± 0.12
303.15 K, x1 = 0.6054 | 2.345 ± 0.12
303.15 K, x1 = 0.8042 | 2.475 ± 0.12
308.15 K, x1 = 0.7025 | 2.045 ± 0.12
